Results published in EP0262903A2, “New acyl derivatives of 20-modified tylosin and desmycosin compounds” (priority 1986, dated 1988).
Values after ≈ are worked out from the molar mass of the structure shown. Where two headings read alike, the source gives them in different places.

How the values were obtained:
[1] = system: Streptococcus faecalis X66; assay: MIC, standard agar-dilution assay; assay type: cell-based; details: Enterococcus faecalis
Procedure: (§1) The MIC's in Table II were determined by standard agar-dilution assays. The MIC's in Table III were obtained using conventional broth-dilution microtiter tests.

[2] = system: Escherichia coli EC14; assay: MIC, standard agar-dilution assay; assay type: cell-based
Procedure: as §1

[3] = system: Staphylococcus aureus X400; assay: MIC, standard agar-dilution assay; assay type: cell-based
Procedure: as §1

[4] = system: Staphylococcus aureus S13E; assay: MIC, standard agar-dilution assay; assay type: cell-based
Procedure: as §1

[5] = system: Staphylococcus epidermidis EPI1; assay: MIC, standard agar-dilution assay; assay type: cell-based
Procedure: as §1

[6] = system: Haemophilus influenzae 76; assay: MIC, standard agar-dilution assay; assay type: cell-based
Procedure: as §1

[7] = system: Staphylococcus epidermidis 222; assay: MIC, standard agar-dilution assay; assay type: cell-based
Procedure: as §1

[8] = system: Streptococcus faecalis 2041; assay: MIC, standard agar-dilution assay; assay type: cell-based; details: Enterococcus faecalis
Procedure: as §1

[9] = system: Haemophilus influenzae C.L.; assay: MIC, standard agar-dilution assay; assay type: cell-based
Procedure: as §1

[10] = system: Streptococcus pneumoniae Park I; assay: MIC, standard agar-dilution assay; assay type: cell-based
Procedure: as §1

[11] = system: Klebsiella pneumoniae X68; assay: MIC, standard agar-dilution assay; assay type: cell-based
Procedure: as §1

[12] = system: Pseudomonas aeruginosa X239; assay: MIC, standard agar-dilution assay; assay type: cell-based
Procedure: as §1

[13] = system: Staphylococcus aureus V41; assay: MIC, standard agar-dilution assay; assay type: cell-based
Procedure: as §1

[14] = system: Streptococcus pyogenes C203; assay: MIC, standard agar-dilution assay; assay type: cell-based
Procedure: as §1

[15] = system: Staphylococcus aureus X1.1; assay: MIC, standard agar-dilution assay; assay type: cell-based
Procedure: as §1

[16] = system: Streptococcus pyogenes C203; assay: ED50 in mice experimentally infected with S. pyogenes C203; assay type: in vivo
Procedure: The formula 1 compounds have shown in vivo antimicrobial activity against experimentally-induced infections in laboratory animals. When two doses of test compound were administered to mice experimentally infected with S. pyogenes C203, the activity observed was measured as an ED₅₀ value [effective dose in mg/kg to protect 50% of the test animals: see Warren Wick, et 5 al., J. Bacteriol. 81, 233-235 (1961)].

[17] = Streptococcus faecalis X66, agar dilution, read-out: MIC
[18] = Escherichia coli EC14, agar dilution, read-out: MIC
[19] = Staphylococcus aureus X400, Methicillin-resistant strain, agar dilution, read-out: MIC
[20] = Staphylococcus epidermidis EPI1, agar dilution, read-out: MIC
[21] = Haemophilus influenzae 76, Ampicillin-resistant strain, agar dilution, read-out: MIC
[22] = Staphylococcus epidermidis 222, agar dilution, read-out: MIC
[23] = Streptococcus faecalis 2041, agar dilution, read-out: MIC
[24] = Haemophilus influenzae C.L., Ampicillin-sensitive strain, agar dilution, read-out: MIC
[25] = Streptococcus pneumoniae Park I, agar dilution, read-out: MIC
[26] = Pseudomonas aeruginosa X239, agar dilution, read-out: MIC
[27] = Staphylococcus aureus V41, Penicillin-resistant strain, agar dilution, read-out: MIC
[28] = Streptococcus pyogenes C203, agar dilution, read-out: MIC
[29] = Staphylococcus aureus X1.1, agar dilution, read-out: MIC
[30] = C203, mice, oral, two doses given 1 and 4 hours post-infection, dose protecting 50% of the test animals, read-out: ED50 Oral
[31] = C203, sc, mice, subcutaneous, two doses given 1 and 4 hours post-infection, dose protecting 50% of the test animals, read-out: ED50 Subcutaneous
[32] = Klebsiella pneumoniae X68, agar dilution, read-out: MIC

Row | SMILES | MIC [1, 17] | MIC [2, 18] | MIC [3, 19] | MIC [4] | MIC [5, 20] | MIC [6, 21] | MIC [7, 22] | MIC [8, 23] | MIC [9, 24] | MIC [10, 25] | MIC ([11]; Klebsiella pneumoniae, X68) | MIC [12, 26] | MIC [13, 27] | MIC [14, 28] | MIC [15, 29] | ED50 [16, 30] | ED50 [16, 31] | also measured
1 | CCC1OC(=O)CC(O)C(C)C(OC2OC(C)C(OC(C)=O)C(N(C)C)C2OC(C)=O)C(CCOc2ccccc2)CC(C)C(=O)C=CC(C)=CC1COC1OC(C)C(OC(C)=O)C(OC)C1OC (centres unmarked) [Compound 1, 2ʹ,4ʹ,4ʹʹ-Tri-O-acetyl-20-DH-20-O-phenyl-desmycosin] | 64 µg/mL (≈ 65.6 µM) | > 128 µg/mL | 4 µg/mL (≈ 4.1 µM) | 4 µg/mL (≈ 4.1 µM) | 4 µg/mL (≈ 4.1 µM) | > 128 µg/mL | 1 µg/mL (≈ 1.02 µM) | 128 µg/mL (≈ 131 µM) | > 128 µg/mL | 8 µg/mL (≈ 8.2 µM) | > 128 µg/mL | > 128 µg/mL | 2 µg/mL (≈ 2.05 µM) | 1 µg/mL (≈ 1.02 µM) | 4 µg/mL (≈ 4.1 µM) |  |  | 
2 | CCC1OC(=O)CC(O)C(C)C(OC2OC(C)C(O)C(N(C)C)C2O)C(CCOc2ccccc2)CC(C)C(=O)C=CC(C)=CC1COC1OC(C)C(OC(=O)Cc2ccccc2)C(OC)C1OC (centres unmarked) [Compound 4, 20-DH-20-O-Phenyl-4ʹʹ-O-(phenylacetyl)-desmycosin] |  |  |  | 2 µg/mL (≈ 2.07 µM) |  |  |  |  |  |  | > 128 µg/mL |  |  |  |  |  |  | MIC ([1]; X66): 16 µg/mL (≈ 16.5 µM); MIC ([2]; Escherichia coli, EC14): > 128 µg/mL; MIC ([3]; Staphylococcus aureus, X400): 2 µg/mL (≈ 2.07 µM); MIC ([5]; Staphylococcus epidermidis, EPI1): 2 µg/mL (≈ 2.07 µM); MIC ([6]; Haemophilus influenzae, 76): 128 µg/mL (≈ 132 µM); MIC ([7]; Staphylococcus epidermidis, 222): 1 µg/mL (≈ 1.03 µM); MIC [8]; 2041: 64 µg/mL (≈ 66.1 µM); MIC ([9]; Haemophilus influenzae): 128 µg/mL (≈ 132 µM); MIC ([10]; Streptococcus pneumoniae): 4 µg/mL (≈ 4.13 µM); MIC ([12]; Pseudomonas aeruginosa, X239): > 128 µg/mL; MIC ([13]; Staphylococcus aureus, V41): 2 µg/mL (≈ 2.07 µM); MIC ([14]; Streptococcus pyogenes, C203): 2 µg/mL (≈ 2.07 µM); MIC ([15]; Staphylococcus aureus, X1.1): 2 µg/mL (≈ 2.07 µM); ED50 ([16]; C203, po, read-out: ED50 Oral): 14.2 mg/kg; ED50 ([16]; C203, sc, read-out: ED50 Subcutaneous): > 10 mg/kg
3 | CCC1OC(=O)CC(O)C(C)C(OC2OC(C)C(O)C(N(C)C)C2O)C(CCOc2ccccc2)CC(C)C(=O)C=CC(C)=CC1COC1OC(C)C(OC(=O)C(NC(=O)OC(C)(C)C)c2ccccc2)C(OC)C1OC [Compound 6, 4ʹʹ-O-(N-BOC)-D-phenylglycyl-20-DH-20-O-phenyl-desmycosin] | > 128 µg/mL | > 128 µg/mL | 8 µg/mL (≈ 7.38 µM) | 16 µg/mL (≈ 14.8 µM) | 16 µg/mL (≈ 14.8 µM) | > 128 µg/mL | 8 µg/mL (≈ 7.38 µM) | > 128 µg/mL | > 128 µg/mL | 16 µg/mL (≈ 14.8 µM) | > 128 µg/mL | > 128 µg/mL | 8 µg/mL (≈ 7.38 µM) | 8 µg/mL (≈ 7.38 µM) | 8 µg/mL (≈ 7.38 µM) |  |  | 
4 | CCC1OC(=O)CC(O)C(C)C(OC2OC(C)C(O)C(N(C)C)C2O)C(CCOc2ccccc2)CC(C)C(=O)C=CC(C)=CC1COC1OC(C)C(OC(=O)C(N)c2ccccc2)C(OC)C1OC [Compound 7, 20-DH-20-O-Phenyl-4ʹʹ-O-(D-phenylglycyl)-desmycosin] | 16 µg/mL (≈ 16.3 µM) | > 128 µg/mL | 1 µg/mL (≈ 1.02 µM) | 1 µg/mL (≈ 1.02 µM) | 2 µg/mL (≈ 2.03 µM) | 64 µg/mL (≈ 65.1 µM) | 1 µg/mL (≈ 1.02 µM) | 32 µg/mL (≈ 32.5 µM) | 128 µg/mL (≈ 130 µM) | 2 µg/mL (≈ 2.03 µM) | > 128 µg/mL | > 128 µg/mL | 2 µg/mL (≈ 2.03 µM) | 2 µg/mL (≈ 2.03 µM) | 1 µg/mL (≈ 1.02 µM) | 21 mg/kg | > 10 mg/kg | 
5 | CCC1OC(=O)CC(O)C(C)C(OC2OC(C)C(OC(C)=O)C(N(C)C)C2OC(C)=O)C(CCOc2ccccc2)CC(C)C(=O)C=CC(C)=CC1COC1OC(C)C(OC(=O)CCl)C(OC)C1OC (centres unmarked) [Compound 8, 2ʹ,4ʹ-Di-O-acetyl-4ʹʹ-O-(chloroacetyl)-20-DH-20-O-phenyl-desmycosin] | 32 µg/mL (≈ 31.7 µM) | > 128 µg/mL | 2 µg/mL (≈ 1.98 µM) | 2 µg/mL (≈ 1.98 µM) | 2 µg/mL (≈ 1.98 µM) | > 128 µg/mL | 2 µg/mL (≈ 1.98 µM) | 128 µg/mL (≈ 127 µM) | > 128 µg/mL | 8 µg/mL (≈ 7.92 µM) | > 128 µg/mL | > 128 µg/mL | 2 µg/mL (≈ 1.98 µM) | 2 µg/mL (≈ 1.98 µM) | 2 µg/mL (≈ 1.98 µM) |  |  | 
6 | CCC1OC(=O)CC(O)C(C)C(OC2OC(C)C(O)C(N(C)C)C2O)C(CCOc2ccccc2)CC(C)C(=O)C=CC(C)=CC1COC1OC(C)C(OC(=O)CNCc2ccccc2)C(OC)C1OC (centres unmarked) [Compound 11, 4ʹʹ-O-(N-Benzylaminoacetyl)-20-DH-20-O-phenyl-desmycosin] | 8 µg/mL (≈ 8.02 µM) | > 128 µg/mL | 2 µg/mL (≈ 2.01 µM) | 2 µg/mL (≈ 2.01 µM) | 2 µg/mL (≈ 2.01 µM) | 64 µg/mL (≈ 64.2 µM) | 2 µg/mL (≈ 2.01 µM) | 8 µg/mL (≈ 8.02 µM) | 128 µg/mL (≈ 128 µM) | 2 µg/mL (≈ 2.01 µM) | > 128 µg/mL | > 128 µg/mL | 2 µg/mL (≈ 2.01 µM) | 2 µg/mL (≈ 2.01 µM) | 1 µg/mL (≈ 1 µM) | 14.4 mg/kg | 5.7 mg/kg | 
7 | CCC1OC(=O)CC(O)C(C)C(OC2OC(C)C(O)C(N(C)C)C2O)C(CCOc2ccccc2)CC(C)C(=O)C=CC(C)=CC1COC1OC(C)C(OC(=O)CN2CCN(C)CC2)C(OC)C1OC (centres unmarked) [Compound 15, 4ʹʹ-O-[(4-Methyl-piperazin-1-yl)acetyl]-20-DH-20-O-phenyl-desmycosin] | 16 µg/mL (≈ 16.2 µM) | > 128 µg/mL | 4 µg/mL (≈ 4.04 µM) | 4 µg/mL (≈ 4.04 µM) | 8 µg/mL (≈ 8.08 µM) | 128 µg/mL (≈ 129 µM) | 4 µg/mL (≈ 4.04 µM) | 16 µg/mL (≈ 16.2 µM) | 128 µg/mL (≈ 129 µM) | 1 µg/mL (≈ 1.01 µM) |  | > 128 µg/mL | 4 µg/mL (≈ 4.04 µM) | 2 µg/mL (≈ 2.02 µM) | 4 µg/mL (≈ 4.04 µM) | 29 mg/kg | > 10 mg/kg | MIC [11, 32]: > 128 µg/mL
8 | CCC(C)CN(CC)CCC1CC(C)C(=O)C=CC(C)=CC(COC2OC(C)C(OC(C)=O)C(OC)C2OC)C(CC)OC(=O)CC(O)C(C)C1OC1OC(C)C(O)C(N(C)C)C1O (centres unmarked) [Compound 17, 4ʹʹ-O-Acetyl-20-DH-20-deoxy-20-[N-ethyl-N-(2-methylbutyl)amino]desmycosin] | 64 µg/mL (≈ 70.1 µM) | > 128 µg/mL | 4 µg/mL (≈ 4.38 µM) | 8 µg/mL (≈ 8.76 µM) | 8 µg/mL (≈ 8.76 µM) | 128 µg/mL (≈ 140 µM) | 4 µg/mL (≈ 4.38 µM) | 64 µg/mL (≈ 70.1 µM) | 64 µg/mL (≈ 70.1 µM) | 4 µg/mL (≈ 4.38 µM) |  | > 128 µg/mL | 8 µg/mL (≈ 8.76 µM) | 4 µg/mL (≈ 4.38 µM) | 8 µg/mL (≈ 8.76 µM) |  |  | MIC [11, 32]: > 128 µg/mL
9 | CCC1OC(=O)CC(O)C(C)C(OC2OC(C)C(O)C(N(C)C)C2O)C(CCN2CC(C)CC(C)C2)CC(C)C(=O)C=CC(C)=CC1COC1OC(C)C(OC(C)=O)C(OC)C1OC (centres unmarked) [Compound 19, 4ʹʹ-O-Acetyl-20-DH-20-deoxy-20-(3,5-dimethylpiperidin-1-yl)-desmycosin] | 8 µg/mL (≈ 8.78 µM) | > 128 µg/mL | 1 µg/mL (≈ 1.1 µM) | 1 µg/mL (≈ 1.1 µM) | 1 µg/mL (≈ 1.1 µM) | 64 µg/mL (≈ 70.2 µM) | 1 µg/mL (≈ 1.1 µM) | 8 µg/mL (≈ 8.78 µM) | 32 µg/mL (≈ 35.1 µM) | 0.125 µg/mL (≈ 0.137 µM) | > 128 µg/mL | > 128 µg/mL | 1 µg/mL (≈ 1.1 µM) | 0.125 µg/mL (≈ 0.137 µM) | 2 µg/mL (≈ 2.19 µM) |  |  | 
